Test results: ChEMBL document CHEMBL3797086, “Synthesis and biological evaluation of novel structural hybrids of benzofuroxan derivatives and fluoroquinolones” (Eur J Med Chem, 2016)
Converted amounts (≈) assume the structure as drawn.

Tests used:
Bacillus cereus [1] = assay: microbe, parasite or virus in culture; assay type: functional; settings: 8035
Bacillus cereus [2] = assay: microbe, parasite or virus in culture; assay type: functional; settings: Bacillus cereus, 8035, 4 h
Staphylococcus aureus [3] = assay: microbe, parasite or virus in culture; assay type: functional; settings: 209p, 4 h
Pseudomonas aeruginosa [4] = assay: microbe, parasite or virus in culture; assay type: functional; settings: 9027
Staphylococcus aureus [5] = assay: microbe, parasite or virus in culture; assay type: functional; settings: 209p
Pseudomonas aeruginosa [6] = assay: microbe, parasite or virus in culture; assay type: functional; settings: Pseudomonas aeruginosa, 9027, 4 h
Escherichia coli [7] = assay: microbe, parasite or virus in culture; assay type: functional; settings: F-50
Bacillus cereus [8] = assay: Potency index, ratio of lomefloxacin MBC to compound MBC for Bacillus cereus 8035; assay type: functional
Escherichia coli [9] = assay: microbe, parasite or virus in culture; assay type: functional; settings: F-50, 4 h
in vitro = settings: human
[10] = red blood cells (RBC), at 0.19 to 3.9 µg/mL

Structure (SMILES)	MIC (Bacillus cereus [1]) [µg/mL]	MBC (Bacillus cereus [2]) [µg/mL]	MBC (Staphylococcus aureus [3]) [µg/mL]	MIC (Pseudomonas aeruginosa [4]) [µg/mL]	MIC (Staphylococcus aureus [5]) [µg/mL]	MBC (Pseudomonas aeruginosa [6]) [µg/mL]	MIC (Escherichia coli [7]) [µg/mL]	Ratio (Bacillus cereus [8])	MBC (Escherichia coli [9]) [µg/mL]	hemolysis at 1 h (in vitro; [10]) [%]	hemolysis at 1 h (in vitro; erythrocyte) [%]
O=C(O)c1cn(C2CC2)c2cc(N3CCNCC3)c(F)cc2c1=O.O=[N+]([O-])c1c(Cl)cc2c(no[n+]2[O-])c1O	7.8	62.5	7.8	15.6	3.9	31.3					
CCn1cc(C(=O)O)c(=O)c2cc(F)c(N3CCNC(C)C3)c(F)c21.O=[N+]([O-])c1c(Cl)cc2c(no[n+]2[O-])c1O (stereo not drawn)	0.97	1.5	1.9	6.3	0.97	12.5	3.1	8	12.5	≤ 1	
C[C@@H]1CN(c2c(F)c(N)c3c(=O)c(C(=O)O)cn(C4CC4)c3c2F)C[C@H](C)N1 [SPARFLOXACIN]	0.19 (≈ 0.484 µM)	3.1 (≈ 7.9 µM)	0.39 (≈ 0.994 µM)	0.78 (≈ 1.99 µM)	0.19 (≈ 0.484 µM)	3.1 (≈ 7.9 µM)	0.19 (≈ 0.484 µM)		3.1 (≈ 7.9 µM)	≤ 1	
CC1CN(c2c(F)c(N)c3c(=O)c(C(=O)O)cn(C4CC4)c3c2F)CC(C)N1.O=[N+]([O-])c1c(Cl)cc2c(no[n+]2[O-])c1O (stereo not drawn)	0.19	1.5	0.39	3.1	0.39	6.3	1.5		1.5	≤ 1	
CCn1cc(C(=O)O)c(=O)c2cc(F)c(N3CCNC(C)C3)c(F)c21 (stereo not drawn) [LOMEFLOXACIN]	6.3 (≈ 17.9 µM)	12.5 (≈ 35.6 µM)	3.1 (≈ 8.82 µM)	6.3 (≈ 17.9 µM)	0.78 (≈ 2.22 µM)	12.5 (≈ 35.6 µM)	3.1 (≈ 8.82 µM)		6.3 (≈ 17.9 µM)	≤ 1	
CCn1cc(C(=O)O)c(=O)c2cc(F)c(N3CCNCC3)cc21.O=[N+]([O-])c1c(Cl)cc2c(no[n+]2[O-])c1O	7.8	15.6	31.3	31.3	7.8	> 500			> 500	≤ 1	
O=C(O)c1cn(C2CC2)c2cc(N3CCNCC3)c(F)cc2c1=O [CIPROFLOXACIN]	0.39 (≈ 1.18 µM)	6.3 (≈ 19 µM)	1.5 (≈ 4.53 µM)	0.39 (≈ 1.18 µM)	0.19 (≈ 0.573 µM)	3.1 (≈ 9.36 µM)			3.1 (≈ 9.36 µM)		≤ 1
CCn1cc(C(=O)O)c(=O)c2cc(F)c(N3CCNCC3)cc21 [NORFLOXACIN]	1.5 (≈ 4.7 µM)	3.1 (≈ 9.71 µM)	6.3 (≈ 19.7 µM)	3.1 (≈ 9.71 µM)	0.39 (≈ 1.22 µM)	25 (≈ 78.3 µM)	0.19 (≈ 0.595 µM)		3.1 (≈ 9.71 µM)	≤ 1	
